Measured values taken from patent publication US20220217980A1, “DITHIOCARBAMATE FUNGICIDE MACROMOLECULAR COMPLEXES” (Adama Makhteshim Ltd., priority 2019, published 2022).

Key:
[1] = Zeta potential analysis of mancozeb dispersions with and without polycations (Zetasizer Nano); assay type: physicochemical
Excerpt: Zeta potential is an indicator for complexation and stability of a dispersion. A zeta potential close to zero between −10 mV and +10 Mv indicates a maximum interaction between polyelectrolytes and MZ. The Zeta potential is the charge that develops at the interface between a solid surface and its liquid medium. Zeta potential values give a value of the net charge (in mV) on particle surfaces.
To a 1 g/l aqueous polycation solution (chitosan (CTS), ϵ-poly-L-lysine or polyallylamine (PAA)), 5, 40, 60, 80 and 120 g/l of MZ powder was added, resulting in ratios 1:5, 1:40, 1:60, 1:80 and 1:120 (based on weigh/weight % of dry material), respectively. Mancozeb added to an aqueous solution served as a control. The dispersions were mixed for 10 min on a vortexing device.
The different polycation-mancozeb incubations were analyzed for the Zeta potential with a Zetasizer Nano (Malvern Instruments. United Kingdom).

[2] = at 20° C.; cited from earlier work

S=C([S-])NCCNC(=S)[S-].[Mn+2].[Zn] [Mancozeb, zinc; manganese(2+); N-[2-(sulfidocarbothioylamino)ethyl]carbamodithioate]
zeta potential ([1]; ratio polycation:mancozeb 1:5): −18.2 mV | zeta potential ([1]; ratio polycation:mancozeb 1:40): −20.6 mV | zeta potential ([1]; ratio polycation:mancozeb 1:60): −20.5 mV | zeta potential ([1]; ratio polycation:mancozeb 1:80): −18.9 mV | zeta potential ([1]; ratio polycation:mancozeb 1:120): −18.3 mV | solubility [2]: about 6.2 mg per liter
